Source: US20070293517A1, “Derivatives Of Chemotherapeutic Agents With A Formaldehyde Releasing Moiety” (RAMOT AT TEL AVIV UNIVERSITY LTD., priority 2004, published 2007)
Blank lines part the entries; values can stand above or below the compound they belong to.

Tests used:
LS-1034 = test: Proliferation assay, LS-1034 cells; format: cell-based, human; details: for IC90: LS-1034; for IC50: LS-1034, LS-1034
From the text: (§1) Cells: The human breast cancer cell lines MCF-7 and MCF-7 DX, were obtained from Dr. R. Supino (Laboratorio Oncologia, Milano, Italy); the murine 3LLD122 highly metastatic Lewis lung carcinoma cell line was obtained from Dr. Eisenbach L, the Weizmann Inst., Israel. The following cell lines were purchased from the ATCC, USA: CT-26, an N-nitroso-N-methylurethane-(NNMU) induced murine (BALB-C) colon carcinoma; Panc02, a mouse (C57/Bl) pancreas adenocarcinoma; HT-49, a human colorectal adenocarcinoma; LS1034, a multidrug resistant human colorectal carcinoma; BxPC-3 human pancreas adenocarcinoma; MES-SA and MES-SA-DXS, human uterine sarcoma sensitive and multidrug resistant, respectively; and Human prostate carcinoma 22RV1, a subclone of CWR22 cells.
(§2) The cells were maintained in DMEM growth medium supplemented with 10% heat inactivated fetal calf serum, 2 mM glutamine, penicillin (250 units/ml) and streptomycin (125 μg/ml) in a humidified 5% CO2/air atmosphere at 37° C.
(§3) Proliferation assay: cells at a density of 3-5×10^4 cells/ml in 200 μl medium supplemented with 10% FCS were seeded in tissue culture 96-well plates for 24 hours, and were then exposed for 72 hours to a novel derivative of a chemotherapeutic agent (in quadruplicate) as specified. After 3 days, the cells were rinsed with PBS, and fixed with ethanol (70%) for 30 minutes. The ethanol was thereafter discarded, 200 μl of 10 μg/ml HOECHST fluorescent dye (Sigma) solubilized in PBS were added and the fluorescence was measured at 390-460 nm with a FluoStar fluorometer. MTT solution (10 ml of 5 mg/ml MTT (Sigma) in PBS) was added, and the plate was incubated for 3 hours. Formazan crystals were dissolved with 140 ml of 0.04 HCl-isopropanol. The optical density of the wells was measured with a microplate reader at 540 nm.
(§4) IC50 and IC90 values were determined from the best-fitted curve where the percentages of survival were 50 or 90 respectively.

CT-26 = test: Proliferation assay, CT-26 cells; format: cell-based, murine
From the text: as §1, §2, §3, §4

[1] = test system: sensitive and resistant uterine cancer cells (MES-SA, MES-SA DXS); test: Proliferation/survival, sensitive and resistant uterine cancer cells (both lines); format: cell-based, human
From the text: as §1, §3, §4

[2] = test system: HT-29 human colon carcinoma; test: Xenograft flank colon carcinoma model, HT29; format: in vivo; details: nude mice; for tumor growth inhibition: P<<0.001
Procedure: Xenograft flank colon carcinoma models: Eight weeks old, male CD1 nude mice (Harlan, Israel) were inoculated sc in the flanks with 5×10^6 HT29 or LS1034 cells. When tumor volume reached 50-100 mm^3, treatment with derivatives of chemotherapeutic agents according to the present embodiments commenced and was given by gavage five times a week for the duration of the experiment at the specified doses. Tumor volume (determined by caliper) and body weights were measured twice weekly. Tumor volume was measured (mm) using the formula for an ellipsoid sphere: Length×Width^2/2=Volume (mm)^3 This commonly used formula was also used to calculate tumor weight, assuming unit density (1 mm^3=1 mg). Serum PSA or CEA: […] At the end of the experiment blood samples were drawn from the eyes of mice (anesthetized slightly by inhalation of ether) or from the hearts of sacrificed animals.

Panc 02 = test: Proliferation assay, Panc 02 cells; format: cell-based; details: Mus musculus, Panc02
From the text: as §1, §2, §3, §4

BXPC-3 = test: Proliferation assay, BXPC-3 cells; format: cell-based, human
From the text: as §1, §2, §3, §4

MES SA DXS = test: Proliferation assay, MES SA DXS cells; format: cell-based, human; details: MES SA DXS
From the text: as §1, §2, §3, §4

MES SA = test: Proliferation assay, MES SA cells; format: cell-based, human
From the text: as §1, §2, §3, §4

HT-29 = test: Proliferation assay, HT-29 cells; format: cell-based, human; details: for IC90: HT-29; for IC50: HT-29, HT-29
[3] = test system: prostate carcinoma cells 22RV; test: Viability of prostate carcinoma cells 22RV; format: cell-based, human
Procedure: (§5) Cells: The human breast cancer cell lines MCF-7 and MCF-7 DX, were obtained from Dr. R. Supino (Laboratorio Oncologia, Milano, Italy); the murine 3LLD122 highly metastatic Lewis lung carcinoma cell line was obtained from Dr. Eisenbach L, the Weizmann Inst., Israel. […]
as §3, with “After 3 days, the cells were rinsed with PBS, and fixed with ethanol (70%) for 30 minutes.” left out, “MTT solution (10 ml of 5 mg/ml MTT (Sigma) in PBS) was added, and the plate was incubated for 3 hours. Formazan crystals were dissolved with 140 ml of 0.04 HCl-isopropanol.” left out
Apoptosis assay: Cells (2×10^5 cells/ml) were seeded in 24-well plates and incubated with a derivative of a chemotherapeutic agent according to the present embodiments, as specified, for 24 hours. […] Alive, apoptotic and total dead cells were quantitated by flow cytometry using a FACS calibur cytometer (Becton Dickinson).

colon carcinoma cells = test: Viability of colon carcinoma cells (FIG. 12); format: cell-based
Procedure: as §3
Apoptosis assay: Cells (2×10^5 cells/ml) were seeded in 24-well plates and incubated with a derivative of a chemotherapeutic agent according to the present embodiments, as specified, for 24 hours. The cells were thereafter collected and double-stained with annexin V-FITC and propidium iodide, according to the manufacturer's instructions (MBL, Japan). Alive, apoptotic and total dead cells were quantitated by flow cytometry using a FACS calibur cytometer (Becton Dickinson).

[4] = test system: human colon carcinoma cells (LS1034); test: Xenograft flank colon carcinoma model, LS1034; format: in vivo; details: nude mice sc implanted with LS1034
Procedure: Xenograft flank colon carcinoma models: Eight weeks old, male CD1 nude mice (Harlan, Israel) were inoculated sc in the flanks with 5×10^6 HT29 or LS1034 cells. When tumor volume reached 50-100 mm^3, treatment with derivatives of chemotherapeutic agents according to the present embodiments commenced and was given by gavage five times a week for the duration of the experiment at the specified doses. Tumor volume (determined by caliper) and body weights were measured twice weekly. Tumor volume was measured (mm) using the formula for an ellipsoid sphere: Length×Width^2/2=Volume (mm)^3
Survival was estimated by the Kaplan-Meier curves, and the difference in survival between the groups was analyzed by Wilcoxon's test and using a log-rank test chi-square (JMP 5.0.1.2, Chicago, Ill.).

[5] = test system: 3LLD122 Lewis lung carcinoma; test: Metastatic lung model (Lewis lung carcinoma); format: in vivo, mice
Procedure: Metastatic lung model: Female C57/BL mice, 6-10 weeks (Harlan, Israel) were […] implanted (in the tail vein) with 5×10^5 3LLD122 cells. Treatment with a derivative of a chemotherapeutic agent according to the present embodiments, for five days per week, commenced 24 hours post cell implantation. After 21 days the animals were sacrificed and their lung lesions were scored under an illuminated magnifying glass.

various cell lines = test: Dose response studies in various cell lines, absence and presence of semicarbazide; format: cell-based; details: semicarbazide 0.5 mM
Procedure: as §3
Semicarbazide sensitive amine oxidase is a source of formaldehyde and is therefore a marker for the effect of formaldehyde. It has been shown that semicarbazide traps formaldehyde and reduces its concentration inside the cell (Nudelman et al. J. Med. Chem., 2005, 48, 1047-1054). Thus, the critical role of formaldehyde can be confirmed by reversal of formaldehyde-mediated effects by the addition of semicarbazide.
Tables 3 and 4 below, as well as FIGS. 7A, 7B and 8A-8D present the dose response studies performed with various cell lines in the absence and presence of semicarbazide, the formaldehyde trapping agent.

[6] = test system: colon cancer cells (LS-1034 and HT-29); test: Survival of colon cancer cells (both lines); format: cell-based, human
Procedure: as §5
as §3, with “After 3 days, the cells were rinsed with PBS, and fixed with ethanol (70%) for 30 minutes.” left out, “MTT solution (10 ml of 5 mg/ml MTT (Sigma) in PBS) was added, and the plate was incubated for 3 hours. Formazan crystals were dissolved with 140 ml of 0.04 HCl-isopropanol.” left out
as §4

[7] = Homo sapiens, tegafur value calculated by extrapolation from the best fitted curve

IC50 (Panc 02): 179 ± 25 µM
IC90 (Panc 02): 637 ± 66 µM
IC50 (BXPC-3; Homo sapiens): 172 ± 21 µM
IC90 (BXPC-3; Homo sapiens): 688 ± 113 µM
IC90 (HT-29; Homo sapiens): 747 ± 52 µM
IC50 (HT-29; Homo sapiens): 201 ± 15 µM
SMILES: O=c1[nH]c(=O)n(C2CCCO2)cc1F (stereo not shown) [Tegafur, tegafur, reference compound]
IC90 (LS-1034; Homo sapiens): 1600 ± 240 µM
IC50 (LS-1034; Homo sapiens): 519 ± 93 µM
IC50 (CT-26; Mus musculus, CT26, CT-26): 136 ± 19 µM
IC90 (CT-26; Mus musculus, CT26, CT-26): 411 ± 23 µM
maximal cell killing achieved [1]: 80%
CEA level in serum [2]: higher
tumor growth inhibition [2]: substantially inhibited tumor growth
IC50 (MES SA DXS; Homo sapiens): 405 ± 20 µM
IC90 (MES SA DXS; [7]): 1470 ± 96 µM
IC50 (MES SA; Homo sapiens): 337 ± 20 µM
IC90 (MES SA; [7]): 1200 ± 97 µM

SMILES: CCCC(=O)OCN1C(=O)CCC(N2C(=O)c3ccccc3C2=O)C1=O (stereo not shown) [AN-438, 2-(1-butroyloxymethyl-2,6-dioxopiperidin-3-yl)isoindoline-1,3-dione]
reduction of viability compared with thalidomide ([3]; prostate carcinoma cells 22RV): significantly more effective in reducing the viability
effect on viability on addition of semicarbazide ([3]; prostate carcinoma cells, 0.5 mM semicarbazide): abrogated the effect
reduction of viability compared with thalidomide (HT-29; human colon cells HT-29): significantly more effective in reducing the viability

SMILES: CCCC(=O)OCn1c(=O)cc[nH]c1=O [AN-439, (2,3-Dihydro-2,6-dioxopyrimidin-1(6H)-yl)methyl butyrate]
effect on cancer cell viability (% of control) (colon carcinoma cells): reduced cell viability in a dose dependent manner

SMILES: O=c1c(F)cn([C@H]2CCCO2)c(=O)n1CO [AN-436, 5-fluoro-1-((R)-tetrahydrofuran-2-yl)-3-(hydroxymethyl)pyrimidine-2,4(1H,3H)-dione]
IC90 (LS-1034; Homo sapiens): 153 ± 16 µM
IC50 (LS-1034; Homo sapiens): 84 ± 8 µM
IC50 (LS-1034; Homo sapiens, + SC 500 μM): 132 ± 7 µM
IC90 (LS-1034; + SC 500 μM): 252 ± 30 µM
survival after 82 days [4]: 75%
IC90 (CT-26; CT-26, + SC 500 μM): 296 ± 28 µM
IC50 (CT-26; Mus musculus, CT26, CT-26, + SC 500 μM): 132 ± 26 µM
IC50 (CT-26; Mus musculus, CT26, CT-26): 99 ± 5 µM
IC90 (CT-26; Mus musculus, CT26, CT-26): 170 ± 9 µM
antimetastatic activity (number of lung lesions) [5]: significantly evident
maximal cell killing achieved [1]: 100%
CEA level in serum [2]: reduced the level significantly
tumor growth inhibition [2]: substantially inhibited tumor growth
inhibitory effect on tumor growth compared with tegafur ([2]; p<0.05): significantly higher than the parent compound
IC50 (Panc 02): 96 ± 9 µM
IC90 (Panc 02): 219 ± 25 µM
IC50 (BXPC-3; + SC 500 μM): 160 ± 17 µM
IC90 (BXPC-3; + SC 500 μM): 460 ± 78 µM
IC50 (BXPC-3; Homo sapiens): 81 ± 9 µM
IC90 (BXPC-3; Homo sapiens): 191 ± 47 µM
reduction of cell killing by co-treatment with semicarbazide (various cell lines): up to 3.5 folds
fold more potent than tegafur, based on IC50 values [6]: ≥ 2.5 fold
IC50 (MES SA DXS; Homo sapiens): 63 ± 4 µM
IC90 (MES SA DXS; Homo sapiens): 101 ± 2 µM
IC50 (MES SA DXS; + SC 500 μM): 203 ± 75 µM
IC90 (MES SA DXS; + SC 500 μM): 356 ± 144 µM
IC50 (MES SA; + SC 500 μM): 182 ± 18 µM
IC90 (MES SA; + SC 500 μM): 456 ± 189 µM
IC50 (MES SA; Homo sapiens): 71 ± 12 µM
IC90 (MES SA; Homo sapiens): 127 ± 19 µM
IC90 (HT-29; + SC 500 μM): 303 ± 7 µM
IC90 (HT-29; Homo sapiens): 115 ± 7 µM
IC50 (HT-29; Homo sapiens): 67 ± 2 µM
IC50 (HT-29; Homo sapiens, + SC (semicarbazide) 500 μM): 164 ± 12 µM
